Experimental data taken from patent publication US11629127B2, “Drug-induced activation of the Reelin signaling system” (UNIVERSITY OF SOUTH FLORIDA, priority 2017, dated 2023).

Target: T1, ApoER2 (Homo sapiens, UniProt Q14114)
T1 construct: expressed in transfected cells; host or cells: HEK293 (named only through the non-transfected controls)
T1 sequence (Q14114 33-963) 1: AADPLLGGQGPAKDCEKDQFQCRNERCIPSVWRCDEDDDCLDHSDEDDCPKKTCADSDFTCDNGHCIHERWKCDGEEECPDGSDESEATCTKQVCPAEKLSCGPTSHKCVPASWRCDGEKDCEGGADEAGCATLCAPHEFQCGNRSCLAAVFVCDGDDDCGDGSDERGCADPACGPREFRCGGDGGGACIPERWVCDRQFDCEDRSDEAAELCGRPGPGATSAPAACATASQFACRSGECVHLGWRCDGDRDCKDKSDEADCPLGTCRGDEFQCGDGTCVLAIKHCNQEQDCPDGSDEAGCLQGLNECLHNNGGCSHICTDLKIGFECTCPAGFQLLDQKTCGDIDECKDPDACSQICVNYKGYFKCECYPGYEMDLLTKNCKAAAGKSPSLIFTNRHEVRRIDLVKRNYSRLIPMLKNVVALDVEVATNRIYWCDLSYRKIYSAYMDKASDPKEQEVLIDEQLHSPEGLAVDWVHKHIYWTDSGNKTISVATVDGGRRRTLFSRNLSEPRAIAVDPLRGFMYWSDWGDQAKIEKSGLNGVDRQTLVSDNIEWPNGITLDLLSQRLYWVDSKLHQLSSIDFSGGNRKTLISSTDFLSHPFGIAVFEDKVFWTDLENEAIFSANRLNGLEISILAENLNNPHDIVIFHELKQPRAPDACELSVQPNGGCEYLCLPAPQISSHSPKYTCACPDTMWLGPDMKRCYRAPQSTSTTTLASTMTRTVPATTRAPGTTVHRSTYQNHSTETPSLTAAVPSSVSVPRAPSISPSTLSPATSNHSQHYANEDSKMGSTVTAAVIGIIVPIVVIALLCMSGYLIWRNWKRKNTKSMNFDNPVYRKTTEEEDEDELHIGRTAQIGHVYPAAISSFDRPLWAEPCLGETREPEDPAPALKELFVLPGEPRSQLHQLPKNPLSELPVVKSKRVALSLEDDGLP
T1 sequence (Q14114 33-963) 2: T1 sequence (Q14114 33-963) 1
Test: ApoER2 luciferase assay (ApoER2 dimerization/clustering)
Type: cell-based
Conditions: for changes in firefly/renilla ratios in the ApoER2 luciferase assay: 10 μM concentration, 60 minutes
Source text: FIG. 3 is a schematic of the ApoER2 Clustering Assay. The ApoER2 clustering assay uses the co-transfection of ApoER2 fusion proteins that express either the C- or N-terminal of the luciferase enzyme (A″) Upon Reelin fragment binding, receptor clustering results in active Luciferase and detectable fluorescence (B″). Controls included non-transfected Hek293 cells. Results are average +/−SEM; n=9-15 assays per fragment
Reelin is able to signal through ApoER2 and VLDLR by clustering the receptors. Receptor clustering results in Dab1 activation and is responsible for the modulation of LTP in wild-type acute hippocampal slices. The ApoER2 luciferase assay was used to measure ApoER2 dimerization. This system used an ApoER2-luciferase fusion protein in which ApoER2 was coupled with either the N- or C-terminus portion of luciferase. Upon receptor clustering, the N- and C-terminus portions of luciferase combined to produce a quantifiable fluorescent signal. As a control, all cells were transfected with a Renilla florescent protein that quantified the number of cells in the testing well. The ratio of luciferase florescence to Renilla florescence was used to determine the effect of small molecules. The ApoER2 luciferase assay (FIG. 3) was used to identify small molecules that mimic the actions of Reelin to activate the Reelin signaling system.
The CNS-Set Library was purchased from ChemBridge® and consisted of 35,000 small molecule compounds. The effects of each compound on Reelin signaling were tested in the absence or presence of purified Reeling with the ApoER2 luciferase assay in a 96-well plate. The assay was used to identify agonists of ApoER2 clustering and luciferase activity and was not particularly sensitive for identifying antagonists of receptor clustering.
Relact02 was tested for inducing dimerization of ApoER2 using luciferase as a reporter. Shown in FIG. 1A is a dose response curve assessing luciferase activity. Activity was determined by dimerization of two ApoER2 receptors fused with a luciferase enzyme reporter at the N- or C-terminal region. The control was a compound with structure similar to but different from Relact02. Shown in FIG. 1B is a time course for the luciferase assay using 5 μM of Relact02 or control molecule. Shown in FIG. 1C is a time course using 5 μM Relact02 alone (black bars) or in the presence of the Reelin protein (gray bars).

Row | changes in firefly/renilla ratios in the ApoER2 luciferase assay | activation / luciferase activity in the ApoER2 luciferase assay (compound screening, 96-well plate) | SMILES
1 | did not show changes | – | CC(C)c1ccc(/C=C/C(=O)Nc2ccc(Cl)cc2Cl)cc1 [(2)]
2 | did not show changes | – | CC(C)c1ccc(/C=C/C(=O)Nc2cccc(Cl)c2Cl)cc1 [(3)]
3 | did not show changes | – | CC(C)c1ccc(/C=C/C(=O)Nc2ccc(Cl)cc2)cc1 [(4)]
4 | did not show changes | – | CC(C)c1ccc(/C=C/C(=O)Nc2ccc(I)cc2Cl)cc1 [(5)]
5 | – | no luciferase activity | CCOC(=O)c1cc(C(=O)NCc2ccccc2)c(=O)[nH]c1C [Compound E02, ethyl 5-((benzylamino)carbonyl)-2-methyl-6-oxo-1,6-dihydro-3-pyridinecarboxylate, reference compound]
